Laboratory results from US4835152A, “1-(4-Aminophenyl)-4-methyl-7,8-methylenedioxy-3,4-dihydro-5H-2,3-b enzodiazepine and acid addition salts thereof same” (Biogal Gyogyszergyar, priority 1986, dated 1989).

What was measured:
[1] = Motility studies on mice (spontaneous motor activity, two-hour experiment); format: in vivo, male mice; conditions: for Increase in motility: 2 h
Experimental: 1.a. Motility studies on mice
For studying how the compound prepared according to Example 1 increases the motility in male mice, two-hour experiments were carried out. In order to determine the spontaneous motor activity, the component of hunger-activitywas excluded (the mice were not fasted), thus only the exploratory activity was recorded. The test animals were placed into the observation box immediately after the intraperitoneal treatment.

[2] = Motility studies on rats (2 hours); format: in vivo, male CFY rats; conditions: for Increase in motility: 2 h
Experimental: 1.b. Motility studies on rats
Male CFY rats weighing 120 to 140 g were treated intraperitoneally in groups of three with a dose of 10, 20, 25 or 30 mg/kg of the compound of Example 1, and were immediately placed into the observation box. The experiment lasted for 2 hours.

[3] = system: haloperidol-induced decrease in SMA; experiment: Measurement of the haloperidol-antagonistic effect in mice (spontaneous motor activity, SMA); format: in vivo, male CFLP mice
Experimental: 2. Measurement of the haloperidol-antagonistic effect in mice
Male CFLP mice weighing 20 to 22 g were treated intraperitoneally with a dose of 0.5 mg/kg of 4-[4-(4-chlorophenyl)-4-hydroxy-1-piperidinyl]-1-(4-fluorophenyl)-1-butanone (haloperidol) and the spontaneous motor activity (SMA) was measured, in relation to the data obtained in the controls, by a capacitance-sensitive motimeter. Another group of the test animals was treated also with a dose of 30 mg/kg of the compound of Example 1, 15 minutes after the administration of haloperidol.

[4] = Examination of stereotypy in rats (method of Costall and Naylor); format: in vivo; design: Stereotypy, average score: scale not given here
Description: 3. Examination of stereotypy in rats
For the measurement of stereotypy the method of B. Costall and R. I. Naylor [Eur. J. Pharmacol. 18, 95 (1972)] was used. The score values in Table 4 are average score values obtained at the time of reading.

[5] = system: oxotremorine-induced tremor; experiment: Inhibition of oxotremorine-induced tremor in mice (method of Rathbun and Slater); format: in vivo, male CFLP mice; conditions: for Inhibition in relation to control group: oxotremorine 1 mg/kg i.p. 1 h later
Experimental: (§1) 4. Inhibition of oxotremorine in mice
(§2) The examinations were carried out according to the method of R. C. Rathbun and I. H. Slater [Psychopharm. 4, 114 (1963)]. One hour after male, starving CFLP mice were orally pre-treated with a dose of 6.25, 12.5 or 25.0 mg/kg of the compound of Example 1, they were intraperitoneally treated with a dose of 1 mg/kg of 1-[4-(1-pyrrolidinyl)-2-butinyl]-2-pyrrolidinone (oxotremorine).
(§3) The inhibition of oxotremorine-induced tremor and salivation exerted by the compound of Example 1 was measured in relation to the control group treated with oxotremorine only. The strength of the inhibition was expressed in scores (0, 0.5, 1, 2 or 3).

[6] = system: oxotremorine-induced salivation; experiment: Inhibition of oxotremorine-induced salivation in mice; format: in vivo, male CFLP mice; conditions: 6.25-25.0 mg/kg p.o.
Experimental: as §1, §2, §3

Acute toxicity in mice = conditions: mouse, in vivo
Description: (§4) The acute toxicity values (LD50) of the compound of Example 1: […]

Acute toxicity in rats = conditions: rat, in vivo
Description: as §4

Emetic side-effect = conditions: in vivo
[7] = Dependence studies, DAF (drug admixed food) method; conditions: 0.05% (w/w) in food, 6 weeks, average daily dose 40 mg/kg, two weeks after withdrawal, listed as compound of the invention

SMILES: CC1Cc2cc3c(cc2C(c2ccc(N)cc2)=NN1)OCO3 (stereo not drawn) [Example 1, 1-(4-aminophenyl)-4-methyl-7,8-methylenedioxy-3,4-dihydro-5H-2,3-benzodiazepine]
- Increase in motility ([1]; 3 mg/kg i.p.): 15%
- Increase in motility ([1]; 10 mg/kg i.p.): 131%
- Increase in motility ([1]; 30 mg/kg i.p.): 473%
- Effect on motility or spontaneous motor activity (in words) ([1]; i.p.): increases the motility or spontaneous motor activity of mice and rats in a dose-dependent manner
- Increase in motility ([2]; 10 mg/kg i.p.): 21%
- Increase in motility ([2]; 20 mg/kg i.p.): 87%
- Increase in motility ([2]; 25 mg/kg i.p.): 106%
- Increase in motility ([2]; 30 mg/kg i.p.): 462%
- Effect on motility or spontaneous motor activity (in words) ([2]; i.p.): increases the motility or spontaneous motor activity of mice and rats in a dose-dependent manner
- Antagonism of haloperidol-induced decrease in SMA ([3]; 30 mg/kg, 15 min after haloperidol 0.5 mg/kg i.p.): significantly antagonized
- Decrease in SMA ([3]; haloperidol 0.5 mg/kg i.p. + compound of Example 1 30 mg/kg i.p. 15 min later): 17.1%
- Stereotypy, average score ([4]; 3.125 mg/kg i.p., 15 min): 0.3
- Stereotypy, average score ([4]; 3.125 mg/kg i.p., 30 min): 0.3
- Stereotypy, average score ([4]; 3.125 mg/kg i.p., 60 min): 0.1
- Stereotypy, average score ([4]; 3.125 mg/kg i.p., 90 min): 0
- Stereotypy, average score ([4]; 3.125 mg/kg i.p., 120 min): 0
- Stereotypy, average score ([4]; 3.125 mg/kg i.p., 180 min): 0
- Stereotypy, average score ([4]; 3.125 mg/kg i.p., 240 min): 0
- Stereotypy, average score ([4]; 6.25 mg/kg i.p., 15 min): 1.0
- Stereotypy, average score ([4]; 6.25 mg/kg i.p., 30 min): 1.3
- Stereotypy, average score ([4]; 6.25 mg/kg i.p., 60 min): 0.3
- Stereotypy, average score ([4]; 6.25 mg/kg i.p., 90 min): 0
- Stereotypy, average score ([4]; 6.25 mg/kg i.p., 120 min): 0
- Stereotypy, average score ([4]; 6.25 mg/kg i.p., 180 min): 0
- Stereotypy, average score ([4]; 6.25 mg/kg i.p., 240 min): 0
- Stereotypy, average score ([4]; 6.25 mg/kg p.o., 15 min): 0.7
- Stereotypy, average score ([4]; 6.25 mg/kg p.o., 30 min): 0.7
- Stereotypy, average score ([4]; 6.25 mg/kg p.o., 60 min): 0.6
- Stereotypy, average score ([4]; 6.25 mg/kg p.o., 90 min): 0
- Stereotypy, average score ([4]; 6.25 mg/kg p.o., 120 min): 0
- Stereotypy, average score ([4]; 6.25 mg/kg p.o., 180 min): 0
- Stereotypy, average score ([4]; 6.25 mg/kg p.o., 240 min): 0
- Stereotypy, average score ([4]; 12.5 mg/kg i.p., 15 min): 1.2
- Stereotypy, average score ([4]; 12.5 mg/kg i.p., 30 min): 1.3
- Stereotypy, average score ([4]; 12.5 mg/kg i.p., 60 min): 1.1
- Stereotypy, average score ([4]; 12.5 mg/kg i.p., 90 min): 1.0
- Stereotypy, average score ([4]; 12.5 mg/kg i.p., 120 min): 0
- Stereotypy, average score ([4]; 12.5 mg/kg i.p., 180 min): 0
- Stereotypy, average score ([4]; 12.5 mg/kg i.p., 240 min): 0
- Stereotypy, average score ([4]; 12.5 mg/kg p.o., 15 min): 0.4
- Stereotypy, average score ([4]; 12.5 mg/kg p.o., 30 min): 0.9
- Stereotypy, average score ([4]; 12.5 mg/kg p.o., 60 min): 1.4
- Stereotypy, average score ([4]; 12.5 mg/kg p.o., 90 min): 0.4
- Stereotypy, average score ([4]; 12.5 mg/kg p.o., 120 min): 0
- Stereotypy, average score ([4]; 12.5 mg/kg p.o., 180 min): 0
- Stereotypy, average score ([4]; 12.5 mg/kg p.o., 240 min): 0
- Stereotypy, average score ([4]; 25.0 mg/kg i.p., 15 min): 1.3
- Stereotypy, average score ([4]; 25.0 mg/kg i.p., 30 min): 1.5
- Stereotypy, average score ([4]; 25.0 mg/kg i.p., 60 min): 1.8
- Stereotypy, average score ([4]; 25.0 mg/kg i.p., 90 min): 1.6
- Stereotypy, average score ([4]; 25.0 mg/kg i.p., 120 min): 1.0
- Stereotypy, average score ([4]; 25.0 mg/kg i.p., 180 min): 0.8
- Stereotypy, average score ([4]; 25.0 mg/kg i.p., 240 min): 0.4
- Stereotypy, average score ([4]; 25.0 mg/kg p.o., 15 min): 0.7
- Stereotypy, average score ([4]; 25.0 mg/kg p.o., 30 min): 1.1
- Stereotypy, average score ([4]; 25.0 mg/kg p.o., 60 min): 1.5
- Stereotypy, average score ([4]; 25.0 mg/kg p.o., 90 min): 0.6
- Stereotypy, average score ([4]; 25.0 mg/kg p.o., 120 min): 0.6
- Stereotypy, average score ([4]; 25.0 mg/kg p.o., 180 min): 0.3
- Stereotypy, average score ([4]; 25.0 mg/kg p.o., 240 min): 0
- Stereotypy, average score ([4]; 50.0 mg/kg i.p., 15 min): 1.5
- Stereotypy, average score ([4]; 50.0 mg/kg i.p., 30 min): 2.1
- Stereotypy, average score ([4]; 50.0 mg/kg i.p., 60 min): 2.7
- Stereotypy, average score ([4]; 50.0 mg/kg i.p., 90 min): 2.4
- Stereotypy, average score ([4]; 50.0 mg/kg i.p., 120 min): 2.4
- Stereotypy, average score ([4]; 50.0 mg/kg i.p., 180 min): 1.7
- Stereotypy, average score ([4]; 50.0 mg/kg i.p., 240 min): 0.6
- Stereotypy, average score ([4]; 50.0 mg/kg p.o., 15 min): 1.7
- Stereotypy, average score ([4]; 50.0 mg/kg p.o., 30 min): 1.9
- Stereotypy, average score ([4]; 50.0 mg/kg p.o., 60 min): 2.3
- Stereotypy, average score ([4]; 50.0 mg/kg p.o., 90 min): 2.3
- Stereotypy, average score ([4]; 50.0 mg/kg p.o., 120 min): 1.9
- Stereotypy, average score ([4]; 50.0 mg/kg p.o., 180 min): 1.1
- Stereotypy, average score ([4]; 50.0 mg/kg p.o., 240 min): 0.2
- Stereotypy (in words) ([4]; rats): causes stereotypy. This effect develops earlier but it is somewhat weaker than the effect of bromocriptine
- Inhibition in relation to control group ([5]; 6.25 mg/kg p.o.): 17%
- Inhibition in relation to control group ([5]; 12.5 mg/kg p.o.): 50%
- Inhibition in relation to control group ([5]; 25.0 mg/kg p.o.): 74%
- ED50 ([5]; Mus musculus, po, range (9.5-19.1) printed in the next line): 13.5 mg/kg
- Effect on oxotremorine-induced tremor (in words) ([5]; mice): significantly decreases the tremor
- Effect on oxotremorine-induced salivation (in words) [6]: does not inhibit the oxotremorine-induced salivation
- LD50 (Acute toxicity in mice; ip): 260 mg/kg
- LD50 (Acute toxicity in mice; po): 300 mg/kg
- LD50 (Acute toxicity in rats; ip): 250 mg/kg
- LD50 (Acute toxicity in rats; po): 350 mg/kg
- Emetic side-effect (Emetic side-effect): does not have the unfavourable side-effects of the known psychostimulants (emetic effect, proneness to dependence)
- Withdrawal symptoms or signs of dependence [7]: does not have the unfavourable side-effects of the known psychostimulants (emetic effect, proneness to dependence)
